System: male SD rats
Assay: Rat 33P phosphate oral challenge test (intestinal phosphate absorption suppression test)
Format: in vivo
Conditions: fasted, 30 mg/kg forcible oral administration, 33P phosphate solution given 30 min later, serum radioactivity AUC0-60min versus control group
Method: (Test Example) Rat ^33P Phosphate Oral Challenge Test (Intestinal Phosphate Absorption Suppression Test)
Using male SD rats (5-7 week old) that had been fasted on the previous day, the compound described in Examples was suspended or dissolved in a solvent such as 0.5% methyl cellulose (3-6 mg/mL), and the thus obtained solution was administered to each rat at a dose of 30 mg/kg by a forcible oral administration. On the other hand, regarding a control group, the solvent was administered to each rat at a dose of 5 mL/kg. Thirty minutes after the administration, a ^33P phosphate solution (8.3 mM NaH2PO4, 0.35 MBq/mL) was administered to the rats at a dose of 7.2 mL/kg by a forcible oral administration. Then, 15, 30, 60, and 120 minutes after the administration, blood was collected from the jugular vein of each rat under anesthesia with isoflurane. The radioactivity in 50 μL of serum was measured using a liquid scintillation counter, and the AUC0-60min was then calculated from the radioactivity value. The obtained value was defined as an amount of phosphate absorbed. The phosphate absorption-inhibiting activity of the compound was calculated according to the following expression. Phosphate absorption-inhibiting activity (%)=[[…]the amount of phosphate absorbed of the control group]×100

Row | SMILES | Phosphorus absorption-inhibiting activity (%)
1 | CCN([C@H]1CC[C@H](C(=O)O)CC1)S(=O)(=O)c1cccc(C(=O)Nc2ccc(N3CCCCC3)cc2C(=O)Nc2ccc(CCc3ccc(C(=O)O)cc3)cc2)c1 [Example 12, Dipotassium 4-[2-(4-{[2-({3-[(trans-4-carboxylatocyclohexyl)(ethyl)sulfamoyl]benzoyl}amino)-5-(piperidin-1-yl)benzoyl]amino}phenyl)ethyl]benzoate] | 79%
2 | CCN([C@H]1CC[C@H](C(=O)[O-])CC1)S(=O)(=O)c1cccc(C(=O)Nc2ccc(OCC3CC3)cc2C(=O)Nc2ccc(CCc3ccc(C(=O)[O-])cc3)cc2)c1.[K+].[K+] [Example 15, Dipotassium 4-[2-(4-{[2-({3-[(trans-4-carboxylatocyclohexyl)(ethyl)sulfamoyl]benzoyl}amino)-5-(cyclopropylmethoxy)benzoyl]amino}phenyl)ethyl]benzoate] | 82%
3 | CCN([C@H]1CC[C@H](C(=O)O)CC1)S(=O)(=O)c1cccc(C(=O)Nc2ccc(OCC3CC3)cc2C(=O)Nc2ccc(CCc3ccc(C(=O)O)cc3)cc2)c1 [Example 30, Disodium 4-[2-(4-{[2-({3-[(trans-4-carboxylatocyclohexyl)(ethyl)sulfamoyl]benzoyl}amino)-5-(cyclopropylmethoxy)benzoyl]amino}phenyl)ethyl]benzoate] | 69%
4 | CCN([C@H]1CC[C@H](C(=O)[O-])CC1)S(=O)(=O)c1cccc(C(=O)Nc2ccc(N3CCCC3)cc2C(=O)Nc2ccc(CCc3ccc(C(=O)[O-])cc3)cc2)c1.[K+].[K+] [Example 10, Dipotassium 4-[2-(4-{[2-({3-[(trans-4-carboxylatocyclohexyl)(ethyl)sulfamoyl]benzoyl}amino)-5-(pyrrolidin-1-yl)benzoyl]amino}phenyl)ethyl]benzoate] | 53%
5 | CCN(CC)c1ccc(NC(=O)c2cccc(S(=O)(=O)N(CC)[C@H]3CC[C@H](C(=O)[O-])CC3)c2)c(C(=O)Nc2ccc(CCc3ccc(C(=O)[O-])cc3)cc2)c1.[Na+].[Na+] [Example 29, Disodium 4-[2-(4-{[2-({3-[(trans-4-carboxylatocyclohexyl)(ethyl)sulfamoyl]benzoyl}amino)-5-(diethylamino)benzoyl]amino}phenyl)ethyl]benzoate] | 72%
6 | CCN([C@H]1CC[C@H](C(=O)[O-])CC1)S(=O)(=O)c1cccc(C(=O)Nc2ccc(N3CCCCC3)cc2C(=O)Nc2ccc(CCc3ccc(C(=O)[O-])cc3)cc2)c1.[Na+].[Na+] [Example 28, Disodium 4-[2-(4-{[2-({3-[(trans-4-carboxylatocyclohexyl)(ethyl)sulfamoyl]benzoyl}amino)-5-(piperidin-1-yl)benzoyl]amino}phenyl)ethyl]benzoate] | 60%
7 | O=C([O-])c1ccc(CCc2ccc(NC(=O)c3cc(N4CCCCC4)ccc3NC(=O)c3cccc(S(=O)(=O)N(C4CC4)[C@H]4CC[C@H](C(=O)[O-])CC4)c3)cc2)cc1.[K+].[K+] [Example 27, Dipotassium 4-[2-(4-{[2-({3-[(trans-4-carboxylatocyclohexyl)(cyclopropyl)sulfamoyl]benzoyl}amino)-5-(piperidin-1-yl)benzoyl]amino}phenyl)ethyl]benzoate] | 57%
8 | CCN([C@H]1CC[C@H](C(=O)O)CC1)S(=O)(=O)c1cccc(C(=O)Nc2ccc(Br)cc2C(=O)Nc2ccc(CCc3ccc(C(=O)O)cc3)cc2)c1 [Example 4, Dipotassium 4-[2-(4-{[5-bromo-2-({3-[(trans-4-carboxylatocyclohexyl)(ethyl)sulfamoyl]benzoyl}amino)benzoyl]amino}phenyl)ethyl]benzoate] | 42%
9 | CCN([C@H]1CC[C@@H](C(=O)O)CC1)S(=O)(=O)c1cccc(C(=O)Nc2ccc(N3CCCCC3)cc2C(=O)Nc2ccc(CCc3ccc(C(=O)O)cc3)cc2)c1 [Example 26, Dipotassium 4-[2-(4-{[2-({3-[(cis-4-carboxylatocyclohexyl)(ethyl)sulfamoyl]benzoyl}amino)-5-(piperidin-1-yl)benzoyl]amino}phenyl)ethyl]benzoate] | 60%
10 | CCN(CC)c1ccc(NC(=O)c2cccc(S(=O)(=O)N(CC)[C@H]3CC[C@H](C(=O)O)CC3)c2)c(C(=O)Nc2ccc(CCc3ccc(C(=O)O)cc3)cc2)c1 [Example 14, Dipotassium 4-[2-(4-{[2-({3-[(trans-4-carboxylatocyclohexyl)(ethyl)sulfamoyl]benzoyl}amino)-5-(diethylamino)benzoyl]amino}phenyl)ethyl]benzoate] | 76%
